pEC50: −log10 of the molar value. *1 amine or outer side, *2 acyl side, *3 side chain or, on linkers, in order; H or OH if unused. Where a SMILES comes first, the peptide text is derived from it. [ ]: non-standard residue; d: D form. X34 = O=C(C[C@@H](Cc1ccccc1)C(=O)[*:2])C12CC(CN[*:1])(C1)C2; Ala(pyrimidin-5-yl) = N[C@@H](Cc1cncnc1)C(=O)O; X6 = O=C([C@H](Cc1cnn(C2COC2)c1)N[*:1])[*:2]; NMe3Pal(5-F) = CN[C@@H](Cc1cncc(F)c1)C(=O)O; NMePhe(3-Me) = CN[C@@H](Cc1cccc(C)c1)C(=O)O; X14 = O=C([C@H](Cc1c(F)cncc1F)N[*:1])[*:2]; X33 = O=C([C@H](Cc1ccnc(F)c1F)N[*:1])[*:2]; X37 = O=C([C@H](Cc1cnc(F)cc1F)N[*:1])[*:2]; X3 = CN([C@@H](Cc1cncnc1)C(=O)[*:2])[*:1]; X5 = O=C([C@H](Cc1c(F)ccnc1F)N[*:1])[*:2]; Leu(4,5-dehydro) = C=C(C)C[C@H](N)C(=O)O; X24 = O=C([C@H](Cc1ccncc1Cl)N[*:1])[*:2]; X11 = CC(C)(F)CC[C@H](N[*:1])C(=O)[*:2]; Nle(5,5-F2) = CC(F)(F)CC[C@H](N)C(=O)O; Phe(3-F) = N[C@@H](Cc1cccc(F)c1)C(=O)O; Ala(cPent) = N[C@@H](CC1CCCC1)C(=O)O; Phe(2-F) = N[C@@H](Cc1ccccc1F)C(=O)O; X31 = O=C([C@H](CCC1CC1)N[*:1])[*:2]; Abu(4,4-F2) = N[C@@H](CC(F)F)C(=O)O; NMe3Pal = CN[C@@H](Cc1cccnc1)C(=O)O; X1 = O=C(C12CC(CN[*:1])(C1)C2)[*:2]; Ala(cPr) = N[C@@H](CC1CC1)C(=O)O; NMeF = CN[C@@H](Cc1ccccc1)C(=O)O; PhLac = O=C(O)[C@@H](O)Cc1ccccc1; 3Pal = N[C@@H](Cc1cccnc1)C(=O)O; Cba = N[C@@H](CC1CCC1)C(=O)O; hLeu = CC(C)CC[C@H](N)C(=O)O; NMeA = CN[C@@H](C)C(=O)O; Nle = CCCC[C@H](N)C(=O)O; Pra = C#CC[C@H](N)C(=O)O
Molecular target: phosphorylation levels of ERK1/2 in AsPC-1 (homozygous KRAS-G12D) cells (Homo sapiens, UniProt P01116, G12D)
Sequence (P01116 1-186 G12D): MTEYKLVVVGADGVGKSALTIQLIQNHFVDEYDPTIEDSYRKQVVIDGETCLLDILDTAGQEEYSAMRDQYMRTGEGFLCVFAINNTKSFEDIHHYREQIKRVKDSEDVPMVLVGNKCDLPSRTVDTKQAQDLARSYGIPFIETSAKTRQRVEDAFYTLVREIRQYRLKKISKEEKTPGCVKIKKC
Experiment: Cellular phospho-ERK assay in AsPC-1 cells (Alpha Screen), assay medium without fetal bovine serum;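 also: signal taken as phospho-ERK over total ERK per well, both detected in one multiplex bead assay, EC50 from four-parameter logistic fit of dose-response curves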
Type: cell-based
Details: phospho-ERK AlphaScreen, 18 h

Structure (SMILES)	pEC50
C[C@H]1C(=O)N[C@@H](Cc2cccnc2)C(=O)N[C@@H](CC2CC2)C(=O)N[C@@H](Cc2ccccc2F)C(=O)N[C@@H](CCC(C)(C)F)C(=O)N(C)[C@@H](Cc2cncc(F)c2)C(=O)NCC23CC(C2)(C3)C(=O)O[C@@H](Cc2ccccc2)C(=O)N1C [compound 284, cyclo(FLac-NMeA-3Pal-cPrA-Phe2F-hL3F-NMe3Pal5F-amBCP)] (cyclo([3Pal][Ala(cPr)][Phe(2-F)][X11][NMe3Pal(5-F)][X1][PhLac][NMeA]))	5.34
C[C@H]1C(=O)N[C@@H](Cc2cccnc2)C(=O)N[C@@H](CC2CCC2)C(=O)N[C@@H](Cc2ccccc2F)C(=O)N[C@@H](CCC(C)(F)F)C(=O)N(C)[C@@H](Cc2cncc(F)c2)C(=O)NCC23CC(C2)(C3)C(=O)O[C@@H](Cc2ccccc2)C(=O)N1C [compound 285, cyclo(FLac-NMeA-3Pal-cBuA-Phe2F-Nle3F2-NMe3Pal5F-amBCP)] (cyclo([3Pal][Cba][Phe(2-F)][Nle(5,5-F2)][NMe3Pal(5-F)][X1][PhLac][NMeA]))	5.24
C#CC[C@@H]1NC(=O)[C@H](CC2CC2)NC(=O)[C@H](Cc2cncnc2)NC(=O)[C@H](C)N(C)C(=O)[C@H](Cc2ccccc2)OC(=O)C23CC(CNC(=O)[C@H](Cc4ccccc4)N(C)C(=O)[C@H](CCC(C)C)NC1=O)(C2)C3 [compound 286, cyclo(FLac-NMeA-PyrimAla-cPrA-Pra-hL-NMeF-amBCP)] (cyclo([Ala(cPr)][Pra][hLeu][NMeF][X1][PhLac][NMeA][Ala(pyrimidin-5-yl)]))	4.52
C=C(C)C[C@@H]1NC(=O)[C@H](CC2CC2)NC(=O)[C@H](Cc2cncnc2)NC(=O)[C@H](C)N(C)C(=O)[C@H](Cc2ccccc2)OC(=O)C23CC(CNC(=O)[C@H](Cc4ccccc4)N(C)C(=O)[C@H](CCC(C)C)NC1=O)(C2)C3 [compound 287, cyclo(FLac-NMeA-PyrimAla-cPrA-deHLeu-hL-NMeF-amBCP)] (cyclo([Ala(cPr)][Leu(4,5-dehydro)][hLeu][NMeF][X1][PhLac][NMeA][Ala(pyrimidin-5-yl)]))	4.77
C[C@H]1C(=O)N[C@@H](Cc2cncnc2)C(=O)N[C@@H](CCC(C)(F)F)C(=O)N[C@@H](Cc2ccccc2F)C(=O)N[C@@H](CCC(C)(F)F)C(=O)N(C)[C@@H](Cc2ccccc2)C(=O)NCC23CC(C2)(C3)C(=O)O[C@@H](Cc2ccccc2)C(=O)N1C [compound 288, cyclo(FLac-NMeA-PyrimAla-Nle3F2-Phe2F-Nle3F2-NMeF-amBCP)] (cyclo([NMeA][Ala(pyrimidin-5-yl)][Nle(5,5-F2)][Phe(2-F)][Nle(5,5-F2)][NMeF][X1][PhLac]))	5.18
C[C@H]1C(=O)N[C@@H](Cc2cccnc2)C(=O)N[C@@H](CC2CC2)C(=O)N[C@@H](Cc2ccccc2F)C(=O)N[C@@H](CCC(C)(F)F)C(=O)N(C)[C@@H](Cc2ccccc2)C(=O)NCC23CC(C2)(C3)C(=O)O[C@@H](Cc2ccccc2)C(=O)N1C [compound 289, cyclo(FLac-NMeA-3Pal-cPrA-Phe2F-Nle3F2-NMeF-amBCP)] (cyclo([3Pal][Ala(cPr)][Phe(2-F)][Nle(5,5-F2)][NMeF][X1][PhLac][NMeA]))	5.97
C[C@H]1C(=O)N[C@@H](Cc2cncnc2)C(=O)N[C@@H](CC2CC2)C(=O)N[C@@H](Cc2ccccc2F)C(=O)N[C@@H](CCC(C)(F)F)C(=O)N(C)[C@@H](Cc2ccccc2)C(=O)NCC23CC(C2)(C3)C(=O)C[C@@H](Cc2ccccc2)C(=O)N1C [compound 290, cyclo(CPhe-NMeA~PyrimAla-cPrA-Phe2F-Nle3F2-NMeF-amBCP)] (cyclo([Ala(cPr)][Phe(2-F)][Nle(5,5-F2)][NMeF][X34][NMeA][Ala(pyrimidin-5-yl)]))	5.97
C[C@H]1C(=O)N[C@@H](Cc2cnn(C3COC3)c2)C(=O)N[C@@H](CC2CC2)C(=O)N[C@@H](Cc2ccccc2F)C(=O)N[C@@H](CCC(C)(F)F)C(=O)N(C)[C@@H](Cc2ccccc2)C(=O)NCC23CC(C2)(C3)C(=O)O[C@@H](Cc2ccccc2)C(=O)N1C [compound 291, cyclo(FLac-NMcA-AlaPyzlOx-cPrA-Phe2F-Nle3F2-NMeF-amBCP)] (cyclo([Ala(cPr)][Phe(2-F)][Nle(5,5-F2)][NMeF][X1][PhLac][NMeA][X6]))	5.49
CC(C)CC[C@@H]1NC(=O)[C@H](Cc2c(F)cncc2F)NC(=O)[C@H](CC2CC2)NC(=O)[C@H](Cc2cncnc2)NC(=O)[C@H](C)N(C)C(=O)[C@H](Cc2ccccc2)OC(=O)C23CC(CNC(=O)[C@H](Cc4ccccc4)N(C)C1=O)(C2)C3 [compound 292, cyclo(FLac-NMeA-PyrimAla-cPrA-4Pal26F2-hL-NMeF-amBCP)] (cyclo([Ala(cPr)][X14][hLeu][NMeF][X1][PhLac][NMeA][Ala(pyrimidin-5-yl)]))	4.84
CC(C)CC[C@@H]1NC(=O)[C@H](Cc2ccnc(F)c2F)NC(=O)[C@H](CC2CC2)NC(=O)[C@H](Cc2cncnc2)NC(=O)[C@H](C)N(C)C(=O)[C@H](Cc2ccccc2)OC(=O)C23CC(CNC(=O)[C@H](Cc4ccccc4)N(C)C1=O)(C2)C3 [compound 293, cyclo(FLac-NMeA-PyrimAla-cPrA-4Pal23F2-hL-NMeF-amBCP)] (cyclo([Ala(cPr)][X33][hLeu][NMeF][X1][PhLac][NMeA][Ala(pyrimidin-5-yl)]))	4.34
CC(C)CC[C@@H]1NC(=O)[C@H](Cc2cnc(F)cc2F)NC(=O)[C@H](CC2CC2)NC(=O)[C@H](Cc2cncnc2)NC(=O)[C@H](C)N(C)C(=O)[C@H](Cc2ccccc2)OC(=O)C23CC(CNC(=O)[C@H](Cc4ccccc4)N(C)C1=O)(C2)C3 [compound 294, cyclo(FLac-NMeA-PyrimAla-cPrA-3Pal46F2-hL-NMeF-amBCP)] (cyclo([Ala(cPr)][X37][hLeu][NMeF][X1][PhLac][NMeA][Ala(pyrimidin-5-yl)]))	5.33
CC(C)CC[C@@H]1NC(=O)[C@H](Cc2c(F)ccnc2F)NC(=O)[C@H](CC2CC2)NC(=O)[C@H](Cc2cncnc2)NC(=O)[C@H](C)N(C)C(=O)[C@H](Cc2ccccc2)OC(=O)C23CC(CNC(=O)[C@H](Cc4ccccc4)N(C)C1=O)(C2)C3 [compound 295, cyclo(FLac-NMeA-PyrimAla-cPrA-3Pal26F2-hL-NMeF-amBCP)] (cyclo([Ala(cPr)][X5][hLeu][NMeF][X1][PhLac][NMeA][Ala(pyrimidin-5-yl)]))	4.53
C[C@H]1C(=O)N[C@@H](Cc2cncnc2)C(=O)N[C@@H](CC2CC2)C(=O)N[C@@H](Cc2ccncc2Cl)C(=O)N[C@@H](CCC(C)(C)F)C(=O)N(C)[C@@H](Cc2ccccc2)C(=O)NCC23CC(C2)(C3)C(=O)O[C@@H](Cc2ccccc2)C(=O)N1C [compound 299, cyclo(FLac-NMeA-PyrimAla-cPrA-4Pal2Cl-hL3F-NMeF-amBCP)] (cyclo([Ala(cPr)][X24][X11][NMeF][X1][PhLac][NMeA][Ala(pyrimidin-5-yl)]))	< 4.29
CC(C)CC[C@@H]1NC(=O)[C@H](Cc2cnn(C3COC3)c2)NC(=O)[C@H](CC2CC2)NC(=O)[C@H](Cc2cncnc2)NC(=O)[C@H](C)N(C)C(=O)[C@H](Cc2ccccc2)OC(=O)C23CC(CNC(=O)[C@H](Cc4ccccc4)N(C)C1=O)(C2)C3 [compound 300, cyclo(FLac-NMeA-PyrimAla-cPrA-AlaPyz1Ox-hL-NMeF-amBCP)] (cyclo([Ala(cPr)][X6][hLeu][NMeF][X1][PhLac][NMeA][Ala(pyrimidin-5-yl)]))	< 4.29
CC(C)CC[C@@H]1NC(=O)[C@H](Cc2ccccc2F)NC(=O)[C@H](CC2CC2)NC(=O)[C@H](Cc2cnn(C3COC3)c2)NC(=O)[C@H](C)N(C)C(=O)[C@H](Cc2ccccc2)OC(=O)C23CC(CNC(=O)[C@H](Cc4cccnc4)N(C)C1=O)(C2)C3 [compound 301, cyclo(FLac-NMeA-AlaPyz1Ox-cPrA-Phe2F-hL-NMe3Pal-amBCP)] (cyclo([Ala(cPr)][Phe(2-F)][hLeu][NMe3Pal][X1][PhLac][NMeA][X6]))	4.40
CC(C)CC[C@@H]1NC(=O)[C@H](Cc2cccc(F)c2)NC(=O)[C@H](CC2CCC2)NC(=O)[C@H](Cc2cncnc2)NC(=O)[C@H](C)N(C)C(=O)[C@H](Cc2ccccc2)OC(=O)C23CC(CNC(=O)[C@H](Cc4ccccc4)N(C)C1=O)(C2)C3 [compound 303, cyclo(FLac-NMeA-PyrimAla-cBuA-Phe3F-hL-NMeF-amBCP)] (cyclo([Cba][Phe(3-F)][hLeu][NMeF][X1][PhLac][NMeA][Ala(pyrimidin-5-yl)]))	6.09
CC(C)CC[C@@H]1NC(=O)[C@H](Cc2ccccc2F)NC(=O)[C@H](CC(F)F)NC(=O)[C@H](Cc2cncnc2)NC(=O)[C@H](C)N(C)C(=O)[C@H](Cc2ccccc2)OC(=O)C23CC(CNC(=O)[C@H](Cc4ccccc4)N(C)C1=O)(C2)C3 [compound 304, cyclo(FLac-NMeA-PyrimAla-AbuF2-Phe2F-hL-NMeF-amBCP)] (cyclo([NMeA][Ala(pyrimidin-5-yl)][Abu(4,4-F2)][Phe(2-F)][hLeu][NMeF][X1][PhLac]))	5.73
CCCC[C@@H]1NC(=O)[C@H](Cc2ccccc2)NC(=O)[C@H](C)N(C)C(=O)[C@H](Cc2ccccc2)OC(=O)C23CC(CNC(=O)[C@H](Cc4ccccc4)N(C)C(=O)[C@H](CCCC)NC(=O)[C@H](Cc4ccccc4F)NC1=O)(C2)C3 [compound 305, cyclo(FLac-NMeA-F-Nle-Phe2F-Nle-NMeF-amBCP)] (cyclo(F[Nle][Phe(2-F)][Nle][NMeF][X1][PhLac][NMeA]))	< 4.29
Cc1cccc(C[C@H]2C(=O)NCC34CC(C3)(C4)C(=O)O[C@@H](Cc3ccccc3)C(=O)N(C)[C@@H](C)C(=O)N[C@@H](Cc3cncnc3)C(=O)N[C@@H](CC3CC3)C(=O)N[C@@H](Cc3ccccc3F)C(=O)N[C@@H](CCC3CC3)C(=O)N2C)c1 [compound 334, cyclo(FLac-NMeA-PyrimAla-cPrA-Phe2F-hcPrA-NMePhe3Me-amBCP)] (cyclo([Ala(cPr)][Phe(2-F)][X31][NMePhe(3-Me)][X1][PhLac][NMeA][Ala(pyrimidin-5-yl)]))	6.65
CC(C)CC[C@@H]1NC(=O)[C@H](Cc2ccccc2F)NC(=O)[C@H](CC2CCCC2)NC(=O)[C@H](Cc2cncnc2)NC(=O)[C@H](C)N(C)C(=O)[C@H](Cc2ccccc2)OC(=O)C23CC(CNC(=O)[C@H](Cc4cncnc4)N(C)C1=O)(C2)C3 [compound 335, cyclo(FLac-NMeA-PyrimAla-cPeA-Phe2F-hL-NMeAlaPyrim-amBCP)] (cyclo([Ala(cPent)][Phe(2-F)][hLeu][X3][X1][PhLac][NMeA][Ala(pyrimidin-5-yl)]))	5.28

Reference: patent US20260001914A1, “MACROCYCLIC PEPTIDES TARGETING KRAS” (Merck Sharp & Dohme LLC, priority 2022, published 2026)
